Results from patent US20220370451A1, “INHIBITORS OF HUMAN IMMUNODEFICIENCY VIRUS REPLICATION” (VIIV HEALTHCARE UK ( No. 5) LIMITED, priority 2019, published 2022).
Where two headings read alike, the source gives them in different places.

Tests used:
Assay type in all cases: cell-based
[1] = tested on: recombinant NL4-3 virus; assay: HIV cell culture assay (luciferase reporter antiviral activity)
Experimental: HIV cell culture assay—MT=2 cells, 293T cells and the proviral DNA clone of NL4-3 virus were obtained from the NIH AIDS Research and Reference Reagent Program. MT=2 cells were propagated in RPMI 1640 media supplemented with 10% heat inactivated fetal bovine serum (FBS), […] penicillin G and up to 100 units/mL streptomycin. The 293T cells were propagated in DMEM media supplemented with 10% heat inactivated FBS, […] penicillin G and […] streptomycin. A recombinant NL4-3 proviral clone, in which a section of the nef gene was replaced with the Renilla luciferase gene, was used to make the reference virus used in these studies. The recombinant virus was prepared through transfection of the recombinant NL4-3 proviral clone into 293T cells using Transit-293 Transfection Reagent from Mirus Bio LLC (Madison, Wis.). Supernatent was harvested after 2-3 days and the amount of virus present was titered in MT=2 cells using luciferase enzyme activity as a marker by measuring luciferase enzyme activity. Luciferase was quantitated using the EnduRen Live Cell Substrate from Promega (Madison, Wis.). Antiviral activities of compounds toward the recombinant virus were quantified by measuring luciferase activity in MT=2 cells infected for 4-5 days with the recombinant virus in the presence of serial dilutions of the compound.
The 50% effective concentration (EC50) was calculated by using the exponential form of the median effect equation where (Fa)=1/[1+(ED50/drug conc.)m] (Johnson V A, Byington RT. Infectivity Assay. In Techniques in HIV Research. ed. Aldovini A, Walker B D. 71-76. New York: Stockton Press.1990). The 50% inhibitory concentration (EC50) was calculated by using the exponential form of the median effect equation where percent inhibition=1/[1+(EC50/drug concentration)m], where m is a parameter that reflects the slope of the concentration-response curve.

[2] = tested on: uninfected MT2 cells; assay: Compound cytotoxicity, XTT-based colorimetric assay
Experimental: (§1) Compound cytotoxicity and the corresponding CC50 values were determined using the same protocol as described in the antiviral assay except that uninfected cells were used. Cytotoxicity was assessed on day 4 in uninfected MT2 cells by using a XTT (2,3-bis[2-Methoxy-4-nitro-5-sulfophenyl]-2H-tetrazolium-5-carboxyanilide inner salt)-based colorimetric assay (Sigma-Aldrich, St Louis, Mo.).

[3] = as above; conditions: human; uninfected MT2 cells, day 4, XTT
Experimental: as §1

[4] = Human immunodeficiency virus 1, NL43, MT2

SMILES | EC50 ([1]; MT-2 cells infected for 4-5 days with recombinant NL4-3 Renilla luciferase virus, read-out: EC50) | CC50 [2] | EC50 [1, 4] | CC50 at 4 days [3]
Cc1nccnc1-c1ccc2c(=O)n(-c3ccc(Cl)c4c(NS(C)(=O)=O)nn(C)c34)c([C@H](Cc3cc(F)cc(F)c3)NC(=O)Cc3cn(C(C)C)c4ccccc34)nc2c1 [Example 8, (S)-N-(1-((3P)-3-(4-chloro-1-methyl-3-(methylsulfonamido)-1H-indazol-7-yl)-7-(3-methylpyrazin-2-yl)-4-oxo-3,4-dihydroquinazolin-2-yl)-2-(3,5-difluorophenyl)ethyl)-2-(1-isopropyl-1H-indol-3-yl)acetamide] | 0.45 nM | > 500 nM | – | –
Cc1cc(C)nc(-c2ccc3c(=O)n(-c4ccc(Cl)c5c(NS(C)(=O)=O)nn(C)c45)c([C@H](Cc4cc(F)cc(F)c4)NC(=O)Cn4nc(C5CC5)c5ccccc54)nc3c2)n1 (atropisomer, axis not shown; (P)) [Example 4, (S)-N-(1-((3P)-3-(4-chloro-1-methyl-3-(methylsulfonamido)-1H-indazol-7-yl)-7-(4,6-dimethylpyrimidin-2-yl)-4-oxo-3,4-dihydroquinazolin-2-yl)-2-(3,5-difluorophenyl)ethyl)-2-(3-cyclopropyl-1H-indazol-1-yl)acetamide] | – | – | 0.91 nM | > 500 nM
Cn1nc(NS(C)(=O)=O)c2c(Cl)ccc(-n3c([C@H](Cc4cc(F)cc(F)c4)NC(=O)C(C)(C)n4ccc(C5CC5)n4)nc4nc(-c5ccccc5F)ccc4c3=O)c21 (atropisomer, axis not shown; (P)) [Example 19, (S)-N-(1-((3P)-3-(4-chloro-1-methyl-3-(methylsulfonamido)-1H-indazol-7-yl)-7-(2-fluorophenyl)-4-oxo-3,4-dihydropyrido[2,3-d]pyrimidin-2-yl)-2-(3,5-difluorophenyl)ethyl)-2-(3-cyclopropyl-1H-pyrazol-1-yl)-2-methylpropanamide] | – | – | 0.22 nM | > 500 nM
Cc1cc(C)nc(-c2ccc3c(=O)n(-c4ccc(Cl)c5c(NS(C)(=O)=O)nn(C)c45)c([C@H](Cc4cc(F)cc(F)c4)NC(=O)Cn4nc(C(F)(F)F)cc4C(F)(F)F)nc3c2)n1 (atropisomer, axis not shown; (P)) [Example 3, (S)-2-(3,5-bis(trifluoromethyl)-1H-pyrazol-1-yl)-N-(1-((3P)-3-(4-chloro-1-methyl-3-(methylsulfonamido)-1H-indazol-7-yl)-7-(4,6-dimethylpyrimidin-2-yl)-4-oxo-3,4-dihydroquinazolin-2-yl)-2-(3,5-difluorophenyl)ethyl)acetamide] | – | – | 3.6 nM | > 500 nM
